# Results published in publication PMC7272640, “Molecular docking, synthesis and biological evaluation of Vascular Endothelial Growth Factor (VEGF) B based peptide as antiangiogenic agent targeting the second domain of the Vascular Endothelial Growth Factor Receptor 1 (VEGFR1D2) for anticancer application” (Signal Transduction and Targeted Therapy, 2020).
# pIC50: −log10 of the molar value. Where a SMILES comes first, the peptide text is derived from it.
# Assays:
# HUVEC [1] = assay type: cell-based, human
# Description: (§1) 2× 10^3 HUVEC and 4T1 cell-line were cultured in DMEM medium supplemented with 10% FBS at 37 °C with 5% CO2 in 96-well plate. After 24 h, The cells were incubated in the media supplemented with 2% FBS, different concentrations (0, 0.015, 0.03, 0.061 μM) of VGB3 in the presence of (0.03 μg.ml^-1) VEGF-A (Sigma, St. Louis, MO) for 24 and 48 respectively. Then, cell proliferation was quantified by 3-(4,5–dimethylthiazol-2-yl)-2 ,5-diphenyl tetrazolium bromide (MTT) (Sigma, St. Louis, MO) solution (5 mg/mL) in PBS (pH 7.4) was added to each well and the plates were incubated in the dark at 37 °C for 4 h. Then the insoluble purple formazan product was dissolved by dimethyl sulfoxide (DMSO). Absorbance was measured at 570 nm using an ELISA plate reader. The assay was performed in triplicate.
# [2] = test system: human extracellular domains (ECD) of VEGFR1D2; assay: ELISA-based displacement assay (VEGF-A/VEGFR-1 interaction); assay type: binding; details: at 100 μM VGB3; btVEGF165 100 pM; plate coated with VEGFR1D2 ECD 20 ng/well, 5 nM; PBS; peptide 45 min at 37 °C then 2 h with btVEGF-A165; chemiluminescence; triplicate wells
# Description: A white flat-bottom high-binding 96-well plate (COSTAR 3922) was coated with human extracellular domains (ECD) of VEGFR1D2 (R&D Systems, Abingdon, UK) in PBS (20 ng/well, 5 nM) overnight at 4 °C. The plate was washed twice with 200 μL of wash buffer (PBS containing 0.1% (v/v) Tween 20) and treated with 200 μL of blocking buffer (PBS containing 3% (w/v) BSA) at 37 °C for 2 h, followed by two washes with wash buffer. Volumes of 50 μL of peptide VGB3 solution at twice the desired final concentration in PBS were added in triplicate wells and the plate was kept at 37 °C for 45 min. A solution of btVEGF-A165 (R & D Systems, Abingdon, UK) at twice the desired final concentration (100 pM) in 50 μL PBS was added. After 2 h incubation, the plate was washed two times with wash buffer. […] Volumes of 100 μL of Supersignal West Pico Chemiluminescent Substrate (Pierce, Rockford, IL, USA) were finally added and the chemiluminescence was quantified with a TECAN spectrophotometer plate-reader. The percentages of displacement were calculated by the following formula: 100×[1 – (S − NS)/(MS – NS)] where S is the signal measured, NS is the nonspecific binding signal defined as the signal measured in the absence of coated receptor on the microplate, and MS is the maximum binding signal obtained with btVEGF-A165 without the peptide VGB3.
# [3] = test system: 4T1 mammary carcinoma tumor; assay: In vivo antitumor efficacy, 4T1 mammary carcinoma tumor model; design: species or system Female BALB/c mice
# Description: Female BALB/c mice (5–7 weeks) were purchased from the Laboratory Animal Center of the Iran Pasteur Institute and maintained under standardized environmental conditions: 12 h light-dark phases, with free access to food and water. For treatment with VGB3, Tumor cells (4T1; 1×10^6 cells/500 μl or 1×10^5 cells/50 μl) were injected subcutaneously into the right flanks of mice (n=3–5). To generate the metastatic model, 4T1 tumor models were sterilized, excised from the breast cancer-bearing BALB/c mice, cut into pieces of <0.3 cm3, and subcutaneously implanted into the animals' right flanks under ketamine (100 mg/kg, i.p.) and xylazine (10 mg/kg, i.p.) anesthesia. Animals carrying tumors of size ~100mm3 were randomized to 6 mice/group (n=6). The treatment groups received 0.02, 0.1, 0.2 or 0.5 mg/kg of VGB3 on alternate days and the control group received PBS i.v. into the mice for 19 days from day 13. The tumor volume was measured every 5 days by a digital Vernier caliper (Mitutoyo, Japan), using the following formula: v=a^2×b×0.52 (where a is the shortest and b is the longest diameter). All studies were performed under the guidelines and with the approval of the Institutional Animal Care and Use Committee (IACUC) of Tehran University of Medical Sciences.
# HUVEC [4] = assay: HUVEC Cytodex 3D bead sprouting assay; assay type: cell-based, human; details: HUVEC Cytodex beads in collagen gel; VGB3 0, 0.015, 0.03, 0.061 μM; VEGF (0.75 pM; method: 0.03 μg/ml VEGF-A); 24 h
# Description: The fibrin or collagen sprouting angiogenesis assay was performed as previously described. Type I collagen was obtained as previously reported. HUVECs were allowed to attach to Cytodex microcarrier beads (Amersham Pharmacia Biotech, Sweden) by incubation in DMEM medium with 10% FBS for 4 h at 37 °C in 5% CO2 (60 μL of […] Cytodex beads were coated with 400 μl of HUVECs). EC-covered beads were embedded into the collagen gel under sodium bicarbonate conditions (Sigma, St. Louis, Missouri, USA), distributed in 96-well plates (100 μl/well), and placed in a 37 °C, 5% CO2 incubator for 30 min. Then DMEM supplemented with 2% FBS with a range of concentrations (0, 0.015, 0.03, 0.061 μM) of VGB3 in the presence of (0.03 μg.ml^-1) VEGF-A were added on top of the collagen gel. After 24 h, angiogenesis was monitored microscopically. All the capillary-like structures were photographed using an inverted microscope (Olympus BX-51, Japan) with a scale bar of 20 μm, and the number of sprouts grown on beads was quantified by ImageJ software. The assays were performed in triplicate.
# [5] = test system: 4T1 mammary carcinoma cells; assay type: cell-based, murine
# Description: as §1
smiles,measurement,setting,value
"CC(C)C[C@@H]1NC(=O)CNC(=O)[C@H](CC(=O)O)NC(=O)[C@H](CC(=O)O)NC(=O)[C@@H]2CCCN2C(=O)[C@@H]2CCCN2C(=O)[C@H](CCCNC(=N)N)NC(=O)[C@@H](NC(=O)[C@@H](N)CCC(=O)O)CSSC[C@@H](C(=O)O)NC1=O [VGB3] (HELM PEPTIDE1{E.C.R.P.P.D.D.G.L.C}$PEPTIDE1,PEPTIDE1,2:R3-10:R3$$$V2.0)",pIC50,HUVEC [1]; 48 h,7.52
same,inhibition of endothelial cell proliferation compared with other reported VEGF-B based peptides,"HUVEC [1]; comparison with refs 2,4,5",more effectively inhibited endothelial cell proliferation
same,inhibition of endothelial cell proliferation compared with clinically used drugs such as Bevacizumab,"HUVEC [1]; endothelial cell culture conditions, comparison with refs 2,4,5",more potent
same,displacement of btVEGF165,[2],up to 63%
same,inhibitory effects on tumor growth and angiogenesis compared with bevacizumab,"[3]; VGB3 0.2 mg/kg i.v. once in every 2 days vs reported bevacizumab 2 mg/kg, twice per week",definitely higher
same,tumor growth inhibition vs PBS control,"[3]; i.v., alternate days, 19 days from day 13, n = 6, dose of the statement not specified",Significant inhibition of tumor growth
same,angiogenesis in vitro (sprouting),HUVEC [4],inhibits angiogenesis in vitro
same,pIC50,[5]; 48 h,7.52
same,IC50 fold lower than that of VEGFR1D2 fragments,[5]; VGB3 IC50 30 nM in 4T1 vs ~180 nM for VEGFR1D2 fragments in HUVEC (ref 3),6 fold
